Format in all cases: in vivo
Holding throughout (design): key: compounds are considered to be active when, at a concentration of 500 ppm or less, their action on the harmful organisms is 50% or more

Assay [1] has as its system eggs of the American tobacco budworm (Heliothis virescens). As to the kind of experiment: Example C: eggs of American tobacco budworm, Petri dish with culture medium. The conditions noted are these: 500 ppm or less; eggs dipped 5 seconds, 200 μl on culture medium; after 6 days. As to the method:
(§1) In Examples A to L below, compounds are considered to be active when, at a concentration of 500 ppm or less, their action on the harmful organisms is 50% or more.
A Petri dish whose bottom was covered with filter paper and which contained about 5 ml of culture medium was prepared. Pieces of filter paper with about 30, one-day-old eggs of the American tobacco budworm (Heliothis virescens) were dipped for 5 seconds into an aqueous solution of the formulated preparation to be examined and subsequently placed in a Petri dish. A further 200 μl of the aqueous solution were spread over the culture medium. The Petri dish was closed and then stored at about 25° C. in a climatized chamber. After 6 days of storage, the effect of the preparation on the eggs and any larvae which may have hatched from these (mortality) was determined. The following examples were active: Nos. 6, 27, 28, 29, 31, 35, 39, 43, 45, 59, 97, 226, 227, 228, 229, 351, 356, 357, 592, 593, 595, 949, 1001, 1126, 1129, 1132.

Assay [2] has as its system L2 larvae of the sugar beet armyworm (Spodoptera exigua). Kind of assay: Example H: L2 larvae of sugar beet armyworm, Petri dish with culture medium. As to conditions: 500 ppm or less, after 6 days. The protocol:
as §1
A Petri dish whose bottom was covered with filter paper and which contained […] of culture medium was prepared. Five L2 larvae of the sugar beet armyworm (Spodoptera exigua) were counted into a small beaker. 200 μl of an aqueous solution of the formulated preparation to be examined were pipetted into the beaker. The treated larvae were then poured into the Petri dish and a further 200 μl of the aqueous solution were distributed over the culture medium. The Petri dish was closed and then stored at 25° C. in a climatized chamber. After 6 days of storage, the effect of the preparation on the larvae (mortality) was determined. The following examples were active: Nos. 31, 97, 226, 227, 228, 229, 351, 356, 357, 592, 593, 595, 949, 1001, 1126, 1129, 1132.

Assay [3] has as its system larvae of the root gall nematode (Meloidogyne incognita). As to the kind of experiment: Example F: root gall nematode, contact action (part A) and soil drench action on cucumber (part B). The conditions noted are these: 500 ppm or less; part A 6 days exposure, part B root galls on cucumber after 2 weeks (Abbott's formula). The protocol: as §1
Part A of the examination (contact action): in a glass vessel, an aqueous solution of the formulated preparation to be examined was added to about 5000 freshly hatched active (mobile) larvae (2nd development stage) of the root gall nematode (Meloidogyne incognita) (final volume 20 ml). After 6 days of permanent exposure of the nematode larvae, the percentage of the individual larvae immobilized by the action of the preparation was determined in comparison to the untreated controls (nematicidal contact action in percent).
Part B of the examination (soil drench action): to this end, the entire solution from part A of the examination (active compound and pre-treated nematode larvae) was poured into a pot, filled with 60 ml of soil, into which three 9-day-old cucumber plants (Cucumis sativus) had been planted. This drench application reduced the active compound content based on the soil volume to one third of the active compound content in part A of the examination. After 2 weeks in a greenhouse at about 26° C. (watering: twice a day), the root balls of the cucumber plants were carefully washed out of the soil mixture contaminated with nematodes. The number of root galls per plant was counted and compared to the infection of untreated control plants. The reduction of the infection in percent as a criterion for the assessment of the activity was calculated using Abbott's formula (nematicidal soil drench action). The following examples were active: Nos. 6, 7, 29, 32, 34, 44, 356.

For assay [4], the system named is spider mites (Tetranychus urticae). Kind of assay: Example A: spider mites on bean leaf, dip treatment. As to conditions: 500 ppm or less; leaf and mites dipped 5 seconds; after 6 days.
Description: as §1
Cut stems of bean plants (Phaseolus vulgaris) carrying one leaf were transferred into brown glass bottles filled with tap water and subsequently populated with approximately 100 spider mites (Tetranychus urticae). The plant leaf and the spider mites were then dipped for 5 seconds into an aqueous solution of the formulated preparation to be examined. After the solution had run off, plants and animals were stored in a climatized chamber (16 hours of light/day, 25° C., 40-60% relative atmospheric humidity). After 6 days of storage, the effect of the preparation on all stages of the spider mites was determined. The following examples were active: Nos. 43, 45, 97, 1132.

The test system of assay [5] is L2 larvae of the Egyptian cotton leaf worm (Spodoptera littoralis). As to the kind of experiment: Example D: L2 larvae of Egyptian cotton leaf worm, Petri dish with culture medium. The conditions noted are these: 500 ppm or less, after 6 days. The protocol:
as §1
A Petri dish whose bottom was covered with filter paper and which contained about 5 ml of culture medium was prepared. Five L2 larvae of the Egyptian cotton leaf worm (Spodoptera littoralis) were counted into small beakers. 200 μl of an aqueous solution of the formulated preparation to be examined were pipetted into the beaker. The treated larvae were then poured into the Petri dish, and a further 200 μl of the aqueous solution were distributed over the culture medium. The Petri dish was closed and then stored at about 25° C. in a climatized chamber. After 6 days of storage, the effect of the preparation on the larvae (mortality) was determined. The following examples were active: Nos. 27, 28, 29, 39, 43, 45, 59.

The subject of assay [6] is L2 larvae of the sugar beet armyworm (Spodoptera exigua). Kind of assay: Example I: sugar beet armyworm L2 larvae on sprayed cotton leaves. The conditions noted are these: 500 ppm or less, after 4 days. The protocol: as §1
Cotton plants were sprayed with an aqueous solution of the formulated preparation to be examined. After drying, leaves were cut off, placed into a Petri dish and populated with 5 L2 larvae of the sugar beet armyworm (Spodoptera exigua). After 4 days of storage at about 23° C., the effect of the preparation on the larvae (mortality) was determined. The following examples were active: Nos. 27, 28, 45, 59.

In assay [7] the test system is larvae of the diamondback moth (Plutella xylostella). Kind of assay: Example L: diamondback moth larvae on sprayed cabbage leaf. The conditions noted are these: 500 ppm or less, after 4 days. The protocol:
as §1
A cabbage leaf was sprayed with an aqueous solution of the formulated preparation to be examined. After drying, the treated leaf was populated with larvae of the diamondback moth (Plutella xylostella). After 4 days of storage at about 25° C., the effect of the preparation on the larvae (mortality) was determined. The following examples were active: Nos. 27, 28, 45.

Assay [8] deals with black bean aphids (Aphis fabae). As to the kind of experiment: Example B: black bean aphids on field bean, dip treatment. The conditions noted are these: 500 ppm or less; plants and aphids dipped 5 seconds; after 3 and 6 days.
Description: as §1
Germinated field bean seeds (Vicia faba) with radicles were transferred into brown glass bottles filled with tap water and subsequently populated with approximately 100 black bean aphids (Aphis fabae). Plants and aphids were then dipped for 5 seconds into an aqueous solution of the formulated preparation to be examined. After the solution had run off, plants and animals were stored in an acclimatized chamber (16 hours of light/day, 25° C., 40-60% relative atmospheric humidity). After 3 and 6 days of storage, the effect of the preparation on the aphids (mortality) was determined. The following examples were active: Nos. 33, 36, 357, 1126.

Take `CSCc1noc(-c2cc(OCC=C(Cl)Cl)cc(Cl)c2OCCCOc2ccc(C(F)(F)F)cn2)n1` [compound 351]: the “effect of the preparation on the eggs and any larvae hatched (mortality)” value in assay [1] is reported as “active”. Besides, the “effect of the preparation on the larvae (mortality)” value (shortened to “effect … on the larvae (mortality)”) in assay [2] is given as “active”.

On to `CC(=NO)c1cc(OCC=C(Cl)Cl)cc(Cl)c1OCCCCOc1ncc(Cl)cc1Cl` [compound 44], for which the “nematicidal contact action / nematicidal soil drench action” value in assay [3] is recorded as “active”.

Take `CON=C(C)c1cc(OCC=C(Cl)Cl)cc(Cl)c1OCCCCOc1ncc(Cl)cc1Cl` [compound 45]: in assay [4], the “effect of the preparation on all stages of the spider mites” value is reported as “active”. The “effect of the preparation on the eggs and any larvae hatched (mortality)” value in assay [1] is “active”. Further, the “effect … on the larvae (mortality)” value in assay [5], in assay [6] and in assay [7] was “active” in each case.

With `OCC#Cc1cc(OCC=C(Cl)Cl)cc(Cl)c1OCCCOc1ccc(C(F)(F)F)cn1` [compound 227], the “effect of the preparation on the eggs and any larvae hatched (mortality)” value in assay [1] is listed as “active”. In addition, in assay [2], the “effect … on the larvae (mortality)” value is recorded as “active”.

For `NC(=S)c1cc(OCC=C(Cl)Cl)cc(Cl)c1OCCCOc1ccc(C(F)(F)F)cn1` [compound 31], the “effect of the preparation on the eggs and any larvae hatched (mortality)” value in assay [1] is reported as “active”. Moreover, the “effect … on the larvae (mortality)” value in assay [2] is “active”.

In the case of `C#Cc1cc(OCC=C(Cl)Cl)cc(Cl)c1OCCCOc1ccc(C(F)(F)F)cn1` [compound 229], the “effect of the preparation on the eggs and any larvae hatched (mortality)” value in assay [1] is on record as “active”. In addition, the “effect … on the larvae (mortality)” value in assay [2] is given as “active”.

Regarding `Cc1noc(-c2cc(OCC=C(Cl)Cl)cc(Cl)c2OCCCOc2ccc(C(F)(F)F)cn2)n1` [compound 357], the “effect of the preparation on the aphids (mortality)” value in assay [8] is given as “active”. Moreover, in assay [1], the “effect of the preparation on the eggs and any larvae hatched (mortality)” value was “active”. The “effect … on the larvae (mortality)” value in assay [2] was “active”.

Consider `CON=C(C)c1cc(OCC=C(Cl)Cl)cc(Cl)c1OCCCOc1ccc(C(F)(F)F)cn1` [compound 29], for which the “effect of the preparation on the eggs and any larvae hatched (mortality)” value in assay [1] is listed as “active”. In addition, in assay [5], the “effect … on the larvae (mortality)” value is recorded as “active”. Further, in assay [3], the “nematicidal contact action / nematicidal soil drench action” value is recorded as “active”.

On to `COCC#Cc1cc(OCC=C(Cl)Cl)cc(Cl)c1OCCCOc1ccc(C(F)(F)F)cn1` [compound 228], for which the “effect of the preparation on the eggs and any larvae hatched (mortality)” value in assay [1] is on record as “active”. Further, the “effect … on the larvae (mortality)” value in assay [2] is “active”.

Take `CCOC(=O)C=Cc1cc(OCC=C(Cl)Cl)cc(Cl)c1OCCCOc1ccc(C(F)(F)F)cn1` [compound 592]: in assay [1], the “effect of the preparation on the eggs and any larvae hatched (mortality)” value was “active”. Moreover, the “effect … on the larvae (mortality)” value in assay [2] is “active”.

`CC(=O)c1cc(OCC=C(Cl)Cl)cc(Cl)c1OCCCCOc1ncc(Cl)cc1Cl` [compound 43]: the “effect of the preparation on all stages of the spider mites” value in assay [4] is “active”. The “effect of the preparation on the eggs and any larvae hatched (mortality)” value in assay [1] is reported as “active”. Further, the “effect … on the larvae (mortality)” value in assay [5] is given as “active”.

Take `CN(C)C(=O)c1cc(OCC=C(Cl)Cl)cc(Cl)c1OCCCOc1ccc(C(F)(F)F)cn1` [compound 36]: the “effect of the preparation on the aphids (mortality)” value in assay [8] is recorded as “active”.

On to `CCNC(=O)c1cc(OCC=C(Cl)Cl)cc(Cl)c1OCCCOc1ccc(C(F)(F)F)cn1` [compound 34], for which the “nematicidal contact action / nematicidal soil drench action” value in assay [3] is on record as “active”.

As to `CC(CO)NC(=O)c1cc(OCC=C(Cl)Cl)cc(Cl)c1OCCCOc1ccc(C(F)(F)F)cn1` (stereo not shown) [compound 32], the “nematicidal contact action / nematicidal soil drench action” value in assay [3] was “active”.

Take `CON(C)C(=O)c1cc(OCC=C(Cl)Cl)cc(Cl)c1OCCCOc1ccc(C(F)(F)F)cn1` [compound 35]: the “effect of the preparation on the eggs and any larvae hatched (mortality)” value in assay [1] is listed as “active”.

On to `C=Cc1cc(OCC=C(Cl)Cl)cc(Cl)c1OCCCOc1ccc(C(F)(F)F)cn1` [compound 595], for which the “effect of the preparation on the eggs and any larvae hatched (mortality)” value in assay [1] was “active”. The “effect … on the larvae (mortality)” value in assay [2] is listed as “active”.

Consider `CC(=O)c1cc(OCC=C(Cl)Cl)cc(Cl)c1OCCCc1ccc(Cl)cc1` [compound 6], for which the “effect of the preparation on the eggs and any larvae hatched (mortality)” value in assay [1] is recorded as “active”. Also, the “nematicidal contact action / nematicidal soil drench action” value in assay [3] is recorded as “active”.

With `COC(=O)C=Cc1cc(OCC=C(Cl)Cl)cc(Cl)c1OCCCOc1ccc(C(F)(F)F)cn1` [compound 593], the “effect of the preparation on the eggs and any larvae hatched (mortality)” value in assay [1] is “active”. In addition, the “effect … on the larvae (mortality)” value in assay [2] is listed as “active”.
